From patent US8575382B2, “Low molecular weight pharmacological activity modulators” (“Ivy Pharm” LLC, priority 2009, dated 2013)
Read-outs that look alike come from different tables or passages of the source. Blank lines part the entries; values can stand above or below the molecule they belong to.

Key:
[1] = tested on: A431 line human epidermoid carcinoma cells; assay: Proliferative activity and death of A431 cells (cell count, propidium iodide flow cytofluorimetry); assay type: cell-based; conditions: for Proportion of dead cells / Total cells: A431; for effect on the proliferative activity of A431 cells (in words): summary of Table 2
Method: The number of living and dead cells in a culture was determined after 24 and 48 hours.
A431 line human epidermoid carcinoma cells, obtained from the All-Russian Cell Culture Collection (Russian Academy of Sciences Institute of Cytology, St. Petersburg).
Cells are cultured in a CO2 incubator (New Brunswick Scientific) at +37° C. and with a CO2 content of 5%. Cells are grown in these conditions to a monolayer culture and are exposed to the action of the test compounds.
The DMEM medium (OOO PanEko, Moscow) with the addition of gentamicin K (80 mg/l), L-glutamine (300 mg/l) and fetal serum (PAA, Austria) to a final concentration of 10%, is used for culturing cells. Cells are transferred to a medium with a reduced serum content of 0.5% 24 hours before commencing an experiment.
The cells were then suspended by pipetting with an automatic pipette and were combined with the previously collected medium. Samples were centrifuged at room temperature for 5 min at 400 g, the supernatant was removed and the deposit was resuspended in pH 7.4 PBS phosphate-salt buffer.
Propidium iodide was added to a suspension of cells to a concentration of 50 μg/ml 5-10 min before measuring in a Bruker ACR 1000 flow cytofluorimeter. This stain is able to penetrate through a damaged cell membrane, and stained cells are dead.

[2] = tested on: A431 line human epidermoid carcinoma cells; assay: as above; assay type: cell-based
[3] = tested on: myocardium (30-minute LCA occlusion, 90-minute reperfusion)
Method: The experiments were performed on male Wistar rats weighing 200-300 g (RAMN Rappolovo Breeding Centre, St. Petersburg) and male C57B mice weighing 25-30 g (B&K, Sollentuna, Sweden). The animals were maintained in a 12/12-hour light regime and received standard feed and drinking water ad libitum. All the experiments were conducted in accordance with the “Handbook on the care and use of laboratory animals” (USA National Institute of Health publication No. 85-23) and “Handbook on the experimental (preclinical) study of new pharmacological substances”.
Initial anesthesia of rats was performed by intraperitoneal administration of etaminal sodium (Nembutal) in a single dose of 7 mg/100 g. The experiments were performed with artificial ventilation of the lungs AVL) via a tracheotomy (respiration rate—60/min, respiratory volume—3 ml/100 g of body weight). AVL was carried out with room air using a Vita-1 unit (PO Krasnogvardeyets, St. Petersburg). A breathing valve for small laboratory animals was used, allowing the dead space volume of the apparatus to be reduced and limiting accumulation of carbon dioxide in the flow system of the apparatus. Arterial pressure (AP) was measured during the experiment using a miniature pressure sensor (Baxter, USA) via a heparinized catheter inserted into the left common carotid artery. A median skin incision was made in the neck, with subsequent blunt separation of the tissues with forceps, for access to the trachea and carotid artery. An electrocardiogram (ECG) was recorded in the course of the experiment (Kardiotekhnika-EKG-8, ZAO Inkart, St. Petersburg) with standard leads, using subcutaneous needle electrodes 2 mm in diameter and 25 mm long. At the start of the experiment, the left femoral vein was catheterized for intravenous infusion of Nembutal with the object of maintaining anesthesia and also for the administration of test preparations and, at the end of the experiment, Evans blue.
A previously described method was used to model ischemia-reperfusion of the myocardium. The heart was accessed via a thoracotomy in the fourth intercostal on the left. An L-shaped skin incision was made first, then the large and small pectoral muscles were separated layer by layer with an electrocoagulator, after which the intercostal muscles were separated and the pleura was exposed. The pericardium was then opened by a blunt method and, using the medial edge of the auricula of the left atrium on the left, and the cone of the pulmonary artery on the right, for guidance the location of the common trunk of the LCA was determined, and a polypropylene ligature for this was placed with the aid of an atraumatic needle (6-O, Cardiopoint, CV-301). Removal of the heart from the wound was avoided since, apart from causing mechanical trauma to the heart, such a manipulation inevitably leads to serious disturbances to the hemodynamics.
An occluder was formed in order to create reversible ischemia of the myocardium: the ends of the ligature surrounding the coronary artery were led into the interior of a polyethylene tube 1 mm in diameter and 5-6 cm long (PE 40), after which occlusion of the left coronary artery (LCA) was achieved by moving the tube towards the heart, and reperfusion by moving it in the opposite direction. A clamp was applied to the tube with the object of maintaining occlusion for 30 minutes. The animals were located on a thermostatted operating table during the experiment; during this time, the body temperature of the animal was maintained in the range 37.5±0.5° C.
30-minute occlusion of the LCA with subsequent 90-minute reperfusion was used to create irreversible ischemic-reperfusion damage to the myocardium, which is a test for assessing cardioprotective effects.

[4] = Solubility of the crystalline coordination compound; assay type: physicochemical
Method: [drawing 10] […] (1.811 mmole) of AgNO3, dissolved in the minimum amount of water, are added to a suspension of 300 mg (0.904 mmole) of Pd(2,2′-dipy)Cl2 in 15 ml of water. The mixture is acidified with 0.5 ml of concentrated HNO3, homogenized in an ultrasound bath for 15 min and filtered. […] (0.905 mmole) of L-cysteine (cys), dissolved in the minimum amount of water, are added to the filtrate. The reaction mixture is evaporated in air at room temperature. […] Yield 70-75%.

[5] = Table 2, age of culture 24 hours, cysteine […], C—Pd […], C—Pd:C […], EGF 200 ng/ml
[6] = Table 2, age of culture 48 hours, cysteine […], C—Pd […], C—Pd:C […], EGF 200 ng/ml
[7] = Table 2, age of culture 0 hours, cysteine […], C—Pd […], C—Pd:C […], EGF 200 ng/ml
[8] = AG1478 0.75 μg/ml 15 min before EGF 200 ng/ml, 24 hours
[9] = AG1478 0.75 μg/ml 15 min before EGF 200 ng/ml, 48 hours
[10] = AG1478 1.0 μg/ml 15 min before EGF 200 ng/ml, 24 hours
[11] = AG1478 1.0 μg/ml 15 min before EGF 200 ng/ml, 48 hours
[12] = AG1478 2.5 μg/ml 15 min before EGF 200 ng/ml, 24 hours
[13] = AG1478 2.5 μg/ml 15 min before EGF 200 ng/ml, 48 hours
[14] = AG1478 5.0 μg/ml 15 min before EGF 200 ng/ml, 24 hours
[15] = AG1478 5.0 μg/ml 15 min before EGF 200 ng/ml, 48 hours

Molecule: N[C@@H](CS)C(=O)O [Cysteine, cysteine]
Proportion of dead cells [1, 5]: 11% | Total cells [1, 5]: 14700 mL⁻¹ | Proportion of dead cells [1, 6]: 22% | Total cells [1, 6]: 23500 mL⁻¹ | effect on the proliferative activity of A431 cells (in words) [1]: no effect on stimulation of proliferative activity | Total cells [2, 7]: 10000 mL⁻¹

Molecule: Nc1ncnc2c1ncn2[C@@H]1O[C@H](CO)[C@@H](O)[C@H]1O [adenosine]
disturbances of the heart rhythm or stopping of the heart ([3]; rat, in vivo): No disturbances of the heart rhythm or stopping of the heart | size of the infarct zone, % of the size of the anatomical risk zone ([3]; rats, adenosine 0.1 μmol/kg i.v. infusion 30 minutes before coronary occlusion (group 1)): 64.7±3.47% | size of the infarct zone, % of the size of the anatomical risk zone ([3]; rats, adenosine 0.25 μmol/kg i.v. 30 minutes before occlusion (group 2)): 63.1±4.31% | size of the infarct zone, % of the size of the anatomical risk zone ([3]; rats, adenosine 0.5 μmol/kg i.v. 30 minutes before occlusion (group 3)): 62.7±4.11% | size of the infarct zone, % of the size of the anatomical risk zone ([3]; rats, adenosine 1.0 μmol/kg i.v. 30 minutes before occlusion (group 4)): 65.1±4.84% | size of the infarct zone, % of the size of the anatomical risk zone ([3]; rats, adenosine 2.5 μmol/kg i.v. 30 minutes before occlusion (group 5)): 60.9±5.10% | size of the infarct zone, % of the size of the anatomical risk zone ([3]; rats, adenosine 5.0 μmol/kg i.v. 30 minutes before occlusion (group 6)): 35.9±3.59% | size of the infarct zone, % of the size of the anatomical risk zone ([3]; rats, adenosine 10.0 μmol/kg i.v. 30 minutes before occlusion (group 7)): 32.7±3.21% | size of the infarct zone, % of the size of the anatomical risk zone ([3]; rats, adenosine 25.0 μmol/kg i.v. 30 minutes before occlusion (group 8)): 28.2±3.43% | size of the infarct zone, % of the size of the anatomical risk zone ([3]; rats, adenosine 50.0 μmol/kg i.v. 30 minutes before occlusion (group 9)): 26.5±2.87% | reduction of the size of the infarct zone compared with the control, factor ([3]; rats, adenosine groups 6-9 (5.0-50.0 μmol/kg), control 63.8±3.32%): 1.5-2.5

solubility ([4]; in acetone): virtually insoluble | solubility ([4]; in dichloromethane): virtually insoluble | solubility ([4]; in ethanol): less soluble | solubility ([4]; in water): readily soluble
Molecule: [Pd2(μ-S-L-Cys)(μ-S-L-CysH)(2,2′-dipy)2](NO3)3.4.5H2O [C—Pd]
Proportion of dead cells [1, 5]: 8% | Total cells [1, 5]: 32300 mL⁻¹ | Proportion of dead cells [1, 6]: 12% | Total cells [1, 6]: 36100 mL⁻¹ | effect on the proliferative activity of A431 cells (in words) [1]: stimulates the proliferative activity | Total cells [2, 7]: 10000 mL⁻¹

Molecule: COc1cc2ncnc(Nc3cccc(Cl)c3)c2cc1OC [AG1478, tyrphostin AG 1478]
Proportion of dead cells [1, 8]: 20% | Total cells [1, 8]: 48100 mL⁻¹ | Proportion of dead cells [1, 9]: 25% | Total cells [1, 9]: 70800 mL⁻¹ | Total cells ([1]; AG1478 1.0 μg/ml 15 min before EGF 200 ng/ml, 0 hours): 10000 mL⁻¹ | Proportion of dead cells [1, 10]: 23% | Total cells [1, 10]: 47100 mL⁻¹ | Proportion of dead cells [1, 11]: 23% | Total cells [1, 11]: 65700 mL⁻¹ | Total cells ([1]; AG1478 2.5 μg/ml 15 min before EGF 200 ng/ml, 0 hours): 10000 mL⁻¹ | Proportion of dead cells [1, 12]: 27% | Total cells [1, 12]: 39400 mL⁻¹ | Proportion of dead cells [1, 13]: 30% | Total cells [1, 13]: 61100 mL⁻¹ | Total cells ([1]; AG1478 5.0 μg/ml 15 min before EGF 200 ng/ml, 0 hours): 10000 mL⁻¹ | Proportion of dead cells [1, 14]: 29% | Total cells [1, 14]: 6400 mL⁻¹ | Proportion of dead cells [1, 15]: 41% | Total cells [1, 15]: 2100 mL⁻¹ | Total cells ([2]; AG1478 0.75 μg/ml 15 min before EGF 200 ng/ml, 0 hours): 10000 mL⁻¹
